We go through one compound from patent publication US20220193076A1, “METHODS OF TREATING BREAST CANCER WITH TUCATINIB” (Seagen Inc., priority 2019, published 2022).

Structures are written as SMILES.

Data set [1] concerns the target T1, MATE1 (Homo sapiens, UniProt Q96FL8).
T1 sequence (Q96FL8 1-570): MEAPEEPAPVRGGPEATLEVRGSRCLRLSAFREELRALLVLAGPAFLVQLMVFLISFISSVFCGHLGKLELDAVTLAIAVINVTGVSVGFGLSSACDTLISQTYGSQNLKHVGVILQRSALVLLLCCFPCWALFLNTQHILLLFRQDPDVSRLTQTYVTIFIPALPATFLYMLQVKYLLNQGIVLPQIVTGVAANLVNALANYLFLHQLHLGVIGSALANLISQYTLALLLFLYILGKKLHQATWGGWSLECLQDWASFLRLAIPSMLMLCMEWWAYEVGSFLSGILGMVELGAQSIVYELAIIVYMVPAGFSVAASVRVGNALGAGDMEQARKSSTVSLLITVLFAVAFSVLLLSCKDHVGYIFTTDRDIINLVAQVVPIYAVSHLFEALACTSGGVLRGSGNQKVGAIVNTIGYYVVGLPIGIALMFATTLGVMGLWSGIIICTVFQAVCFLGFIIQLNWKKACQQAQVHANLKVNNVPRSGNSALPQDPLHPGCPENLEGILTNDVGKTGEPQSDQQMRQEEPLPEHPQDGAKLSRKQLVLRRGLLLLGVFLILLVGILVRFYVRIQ
In words: In vitro inhibition of MATE1 transporter. The data set is classed as in vitro ADME.

The next data set addresses MATE2K (Homo sapiens, UniProt Q86VL8). In words: In vitro inhibition of MATE2K transporter. The data set is classed as in vitro ADME.
A short description of data set [2]: Example 1: plasma tucatinib trough concentrations. The format is in vivo, human. To be noted: 300 mg tucatinib bid from Day 2.
The nature of data set [3]: Predicted hepatic metabolic stability across species. The data set is classed as in vitro ADME.
Data set [4] in a line: Example 2 Part E: single- and multiple-dose PK of tucatinib and ONT-993. As to conditions: tucatinib 300 mg BID, Day 14 vs Day 8. The format is in vivo, human.
For the next data set, the target named is T2, OAT2 (Homo sapiens, UniProt Q9Y694).
T2 construct: expressed in transfected cells; host or cells: MDCK-II
T2 sequence (Q9Y694 1-548): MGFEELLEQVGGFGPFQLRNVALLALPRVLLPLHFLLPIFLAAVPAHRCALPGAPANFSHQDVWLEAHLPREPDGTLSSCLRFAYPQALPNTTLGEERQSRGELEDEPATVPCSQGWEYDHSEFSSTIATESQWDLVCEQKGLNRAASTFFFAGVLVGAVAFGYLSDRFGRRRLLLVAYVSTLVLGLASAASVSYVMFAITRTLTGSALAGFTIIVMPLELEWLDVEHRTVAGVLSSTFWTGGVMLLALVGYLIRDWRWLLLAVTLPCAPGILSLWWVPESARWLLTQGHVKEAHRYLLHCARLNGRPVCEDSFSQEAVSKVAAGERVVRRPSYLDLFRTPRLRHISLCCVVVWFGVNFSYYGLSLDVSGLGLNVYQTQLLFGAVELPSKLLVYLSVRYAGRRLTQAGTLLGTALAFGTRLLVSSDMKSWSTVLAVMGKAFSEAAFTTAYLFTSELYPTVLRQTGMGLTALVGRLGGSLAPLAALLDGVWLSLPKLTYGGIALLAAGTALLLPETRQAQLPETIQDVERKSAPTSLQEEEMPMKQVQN
In words: Inhibition of OAT2 mediated transport of creatinine in transfected MDCK-II cells (Example 3). The data set is classed as in vitro ADME. As to conditions: MDCK-II, read-out: Maximum inhibition of OAT2 mediated transport of creatinine. As to the method: (§1) Substrate dependent inhibition is common among transporters including MATE1 and MATE2-K. In this study, creatinine was used as the probe substrate to assess the inhibitory potency of Tucatinib and ONT-993. OAT2, OCT2, OCT3, MATE1, and MATE2-K are the renal transporters identified to transport creatinine. Tucatinib and its metabolite ONT-993 were tested as potential inhibitors of OAT2, OCT2, MATE1, and MATE2-K mediated transport using creatinine as a probe substrate.
(§2) For this study, MDCK-II were maintained in DMEM with low glucose and 10% FBS. Cells were seeded at 60K±10K cells/well on 96-well, transwell membrane plates approximately 24 hours before transfection. Transport assays were carried out approximately 48 hours after transfection. Cells were transfected and treated to express the transporter of interest or treated with a control vector. The transport of creatinine was determined by radiometric detection.
(§3) Net transporter mediated uptake of the substrate by each transporter was calculated as follows: Net Transporter Mediated Substrate Uptake (pmol/min/cm^2)=(Cellular accumulation in the presence of the transporter)−(Mean cellular accumulation in the absence of the transporter.
(§4) Percent inhibition was calculated as follows: Percent inhibition=100−(100*(transporter mediated uptake)with inhibition/(transporter mediated uptake)without inhibition) […]

In the next data set the target is T3, OCT2 (Homo sapiens, UniProt O15244).
T3 construct: expressed in transfected cells; host or cells: MDCK-II
T3 sequence (O15244 1-555): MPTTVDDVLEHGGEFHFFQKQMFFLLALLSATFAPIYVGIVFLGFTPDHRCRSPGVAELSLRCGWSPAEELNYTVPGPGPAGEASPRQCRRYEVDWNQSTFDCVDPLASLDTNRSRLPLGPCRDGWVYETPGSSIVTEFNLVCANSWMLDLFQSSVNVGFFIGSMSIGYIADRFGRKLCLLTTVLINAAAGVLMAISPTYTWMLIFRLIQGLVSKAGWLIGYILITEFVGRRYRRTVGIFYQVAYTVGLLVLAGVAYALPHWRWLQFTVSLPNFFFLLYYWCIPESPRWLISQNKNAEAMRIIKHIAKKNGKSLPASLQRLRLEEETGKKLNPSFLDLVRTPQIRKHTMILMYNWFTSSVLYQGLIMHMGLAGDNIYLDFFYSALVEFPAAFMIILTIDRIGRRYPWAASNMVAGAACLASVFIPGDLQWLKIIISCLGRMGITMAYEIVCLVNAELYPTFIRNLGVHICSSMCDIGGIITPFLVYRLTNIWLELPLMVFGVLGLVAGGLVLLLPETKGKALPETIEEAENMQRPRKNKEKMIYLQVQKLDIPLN
In words: Inhibition of OCT2 mediated transport of creatinine in transfected MDCK-II cells (Example 3). The data set is classed as in vitro ADME. As to conditions: probe substrate creatinine, 0.03 to 10 μM. The procedure: as §1, §2, §3, §4

The target of data set [5] is T1, MATE1. In words: Inhibition of MATE1 mediated transport of creatinine in transfected MDCK-II cells (Example 3). As to conditions: probe substrate creatinine. On the set-up: expressed in transfected cells; host or cells: MDCK-II. The format is in vitro ADME. The procedure: OAT2, OCT2, OCT3, MATE1, and MATE2-K are the renal transporters identified to transport creatinine.
as §2, §3
Percent inhibition was calculated as follows: Percent inhibition=100−(100*(transporter mediated uptake)with inhibition/(transporter mediated uptake)without inhibition)
The following equation was used to determine IC50 values of uptake assays: […]

Sequence of MATE2K (Q86VL8 1-566 isoform Q86VL8-3): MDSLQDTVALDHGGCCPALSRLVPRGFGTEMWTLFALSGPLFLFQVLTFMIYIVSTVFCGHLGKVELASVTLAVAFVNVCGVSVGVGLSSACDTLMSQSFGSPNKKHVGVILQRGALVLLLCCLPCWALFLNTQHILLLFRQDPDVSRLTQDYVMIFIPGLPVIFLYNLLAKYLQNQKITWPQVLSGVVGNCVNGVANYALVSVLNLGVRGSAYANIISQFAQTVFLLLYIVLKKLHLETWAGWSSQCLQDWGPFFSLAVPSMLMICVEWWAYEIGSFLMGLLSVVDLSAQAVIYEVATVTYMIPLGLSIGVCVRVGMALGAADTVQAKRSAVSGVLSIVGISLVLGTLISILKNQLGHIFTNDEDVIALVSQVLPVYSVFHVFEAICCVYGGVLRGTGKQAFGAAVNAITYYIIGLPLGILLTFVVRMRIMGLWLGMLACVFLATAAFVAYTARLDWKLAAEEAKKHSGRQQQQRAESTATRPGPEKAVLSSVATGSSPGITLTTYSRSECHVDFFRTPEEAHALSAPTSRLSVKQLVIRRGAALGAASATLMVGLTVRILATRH

For orientation: IC50 means the concentration that gives 50% inhibition. Read a high IC50 as weaker potency. A word on the inhibition: it is how much of the control response was suppressed. Consider `Cc1cc(Nc2ncnc3ccc(NC4=NC(C)(C)CO4)cc23)ccc1Oc1ccn2ncnc2c1` [tucatinib], for which the IC50 against MATE1 [1] is 340 nM; on MATE2K, 140 nM; against OCT2, 107 ± 37.9 nM; at MATE1 [5], 85.5 ± 17.5 nM. Further, in data set [2], the “Steady-state plasma concentrations reached by” value is ≤ 6 days. Further, in data set [3], the “Stability with respect to hepatic metabolism” value was “good-to-moderate stability”. Also, the “Rac (accumulation ratio) after multiple dosing” value in data set [4] is listed as 1.50. For the same compound, the inhibition at 10 µM at OAT2 is 14.7%.
